# Results taken from patent US8642008B2, “Molecular probe for imaging of pancreatic islets and use of the same” (priority 2009, dated 2014).
# What was measured:
# [1] = tested on: pancreatic islets; conditions: cited from earlier work
# [2] = tested on: GLP-1R-positive tumor cells; conditions: cited from earlier work
# [3] = mouse, iv
# Experimental: At points of 5 minutes, 15 minutes, 30 minutes, 60 minutes, and 120 minutes after the administration, organs were dissected out of the mice, respectively (n=5). The weight and the radioactivity of each organ were determined, and an accumulation amount (% dose/g) of the molecular probe was calculated from the radioactivity per unit weight. […] FIG. 1A is a graph showing how the accumulation of the molecular probe in each organ varied with time, and FIG. 1B is a graph of an enlarged part of FIG. 1A.
# 1, biodistribution of the same in a mouse was determined. […] The determination of biodistribution was carried out in the same manner as that in Example 1.
# At points of 5 minutes, 15 minutes, 30 minutes, 60 minutes, and 120 minutes after the administration, organs were dissected out of the mice, respectively (n=5). The weight and the radioactivity of each organ were determined, and an accumulation amount (% dose/g) of the molecular probe was calculated from the radioactivity per unit weight. […] FIG. 5A is a graph showing how the accumulation of the molecular probe in each organ varied with time, and FIG. 5B is a graph of an enlarged part of 5A.
# [4] = tested on: pancreatic β-cells; assay: Two-dimensional imaging analysis of pancreas sections of MIP-GFP mice (fluorescence and autoradiography); format: in vivo, mouse
# Experimental: Two-dimensional imaging analysis was performed using transgenic mice that have a genetic background of C57BL/6 mice and express GFP (green fluorescent protein) under regulation of MIP (mouse insulin I gene promoter) (hereinafter these mice are referred to as “MIP-GFP mice”). […] Sections were cut out of the dissected pancreases, and each section was placed on a slide glass, covered with a cover glass. Fluorescence and radioactivity (autoradiography) of each section were determined using an image analyzer (trade name: Typhoon 9410, produced by GE Health Care Inc.) (exposure time: 14 hours).
# Sections were cut out of the dissected pancreases, and fluorescence and radioactivity of each section were determined in the same manner as described above.
# DPP (dipeptidyl peptidase) IV inhibitor (0.1 mL of 6 mg/mL solution) was administered by intravenous injection to unanesthetized MIP-GFP mice (male, weight: 20 g), and these mice were used as controls 1-2. […] Sections were cut out of the dissected pancreases, and fluorescence and radioactivity of each section were determined in the same manner as described above. […]
# Sections were cut out of the dissected pancreases, and fluorescence and radioactivity of each section thus obtained were determined in the same manner as described above.
Substance,uptake in pancreatic islets [1],uptake in the GLP-1R-positive tumor cells [2],"accumulation amount in the pancreas, times as much as that in the intestine ([3]; in vivo)","accumulation amount in the pancreas, times as much as that in the stomach ([3]; in vivo)",change with time of accumulation in the thyroid gland (deiodization metabolism in vivo) [3],localization of the radioactivity signal versus GFP signal in pancreas sections ([4]; 30 and 60 minutes after administration),radioactivity signal of pancreas sections after preliminary administration of cold probe exendin(9-39) ([4]; 30 minutes after probe)
Lys^40(Ahx-DTPA-^111In)Exendin-(9-39),about 0.4%,about 7.5%,–,–,–,–,–
"formula (35): exendin(9-39) sequence, α-amino group at N-terminus labeled with [125I] 3-iodobenzoyl group, C-terminus amidated",–,–,not less than 11 times,not less than 3 times,no great change,consistent with that of the GFP signal,substantially no radioactivity signal was detected
